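96-well plates; 48 h exposure; 5 concentrations. Endpoints by linear interpolation between flanking doses. Not reached: highest tested concentration assigned. Definition used: TGI = concentration required for complete inhibition of growth.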
How the values were obtained:
Assay in all cases: DTP human tumour cell line panel, 48 h
[1] = tested on: 786-0 renal
[2] = tested on: A498 renal
[3] = tested on: ACHN renal
[4] = tested on: CCRF-CEM leukemia
[5] = tested on: COLO 205 colon
[6] = tested on: HCT-116 colon
[7] = tested on: M14 melanoma
[8] = tested on: MDA-MB-231 breast
[9] = tested on: MOLT-4 leukemia
[10] = tested on: OVCAR-3 ovarian
[11] = tested on: OVCAR-8 ovarian
[12] = tested on: RXF 393 renal
[13] = tested on: SN12C renal
[14] = tested on: T-47D breast
[15] = tested on: U251 CNS
[16] = tested on: UACC-257 melanoma
[17] = tested on: A549 NSCLC
[18] = tested on: HOP-62 NSCLC
[19] = tested on: NCI-H522 lung
[20] = tested on: OVCAR-4 ovarian

## COc1ccc(C2OC(N)=C(C#N)C3=C2CCCC3C)cc1OC (stereo unspecified)
[1]
  TGI: > 100 µM
[2]
  TGI: > 100 µM
[3]
  TGI: > 100 µM
[4]
  TGI: > 100 µM
[5]
  TGI: > 100 µM
[6]
  TGI: > 100 µM
[7]
  TGI: > 100 µM
[8]
  TGI: > 100 µM
[9]
  TGI: > 100 µM
[10]
  TGI: > 100 µM
[11]
  TGI: > 100 µM
[12]
  TGI: > 100 µM
[13]
  TGI: > 100 µM
[14]
  TGI: > 100 µM
[15]
  TGI: > 100 µM
[16]
  TGI: > 100 µM

## CC(C)N(C(=O)C1(O)c2ccccc2C=Cc2ccccc21)C(C)C
[1]
  TGI: 38.8 µM
[2]
  TGI: 29.8 µM
[17]
  TGI: 48.3 µM
[3]
  TGI: 29.5 µM
[5]
  TGI: 33.4 µM
[6]
  TGI: 32.8 µM
[18]
  TGI: 35.6 µM
[7]
  TGI: 40.1 µM
[8]
  TGI: 29.3 µM
[9]
  TGI: 82.8 µM
[19]
  TGI: 25.3 µM
[10]
  TGI: 31.3 µM
[20]
  TGI: 52 µM
[11]
  TGI: 30.5 µM
[13]
  TGI: 31.4 µM
[14]
  TGI: 37.1 µM
[15]
  TGI: 30.5 µM

## CN1C(=O)CSC1=S
[1]
  TGI: > 100 µM
[2]
  TGI: > 100 µM
[17]
  TGI: > 100 µM
[3]
  TGI: > 100 µM
[4]
  TGI: > 100 µM
[5]
  TGI: > 100 µM
[6]
  TGI: > 100 µM
[18]
  TGI: > 100 µM
[7]
  TGI: > 100 µM
[9]
  TGI: > 100 µM
[19]
  TGI: > 100 µM
[10]
  TGI: > 100 µM
[20]
  TGI: > 100 µM
[11]
  TGI: > 100 µM
[12]
  TGI: > 100 µM
[13]
  TGI: > 100 µM
[15]
  TGI: > 100 µM
[16]
  TGI: > 100 µM

## CCOC(=O)c1c(NC(=O)OC)c(C#N)c2n1CCCCC2
[1]
  TGI: > 100 µM
[2]
  TGI: > 100 µM
[3]
  TGI: > 100 µM
[4]
  TGI: > 100 µM
[5]
  TGI: > 100 µM
[6]
  TGI: > 100 µM
[18]
  TGI: > 100 µM
[7]
  TGI: > 100 µM
[8]
  TGI: 91.7 µM
[9]
  TGI: > 100 µM
[20]
  TGI: > 100 µM
[11]
  TGI: > 100 µM
[12]
  TGI: > 100 µM
[14]
  TGI: > 100 µM
[15]
  TGI: > 100 µM
[16]
  TGI: > 100 µM

## COc1ccc(CC2c3cc(OC)c(OC)cc3CC[N+]2(C)C)cc1OC (stereo unspecified)
[1]
  TGI: > 100 µM
[2]
  TGI: > 100 µM
[17]
  TGI: > 100 µM
[3]
  TGI: > 100 µM
[4]
  TGI: > 100 µM
[5]
  TGI: > 100 µM
[6]
  TGI: > 100 µM
[8]
  TGI: > 100 µM
[9]
  TGI: > 100 µM
[19]
  TGI: > 100 µM
[10]
  TGI: > 100 µM
[20]
  TGI: > 100 µM
[11]
  TGI: > 100 µM
[13]
  TGI: > 100 µM
[14]
  TGI: > 100 µM
[15]
  TGI: > 100 µM
[16]
  TGI: > 100 µM

## Cc1ccccc1N/C(=C(/C(Cl)=C(Cl)Cl)[N+](=O)[O-])n1nnc2ccccc21
[1]
  TGI: > 100 µM
[2]
  TGI: 40.4 µM
[17]
  TGI: > 100 µM
[3]
  TGI: > 100 µM
[4]
  TGI: > 100 µM
[5]
  TGI: 29.1 µM
[6]
  TGI: > 100 µM
[18]
  TGI: 30.6 µM
[7]
  TGI: 64.9 µM
[8]
  TGI: 58.1 µM
[9]
  TGI: > 100 µM
[10]
  TGI: 30.8 µM
[20]
  TGI: 34 µM
[13]
  TGI: 31.1 µM
[14]
  TGI: 58 µM
[15]
  TGI: 29.9 µM
[16]
  TGI: > 100 µM

## COc1ccc(-c2nc(-c3cc4c(ccc5ccccc54)oc3=O)cs2)cc1
[1]
  TGI: 82 µM
[17]
  TGI: > 100 µM
[3]
  TGI: > 100 µM
[4]
  TGI: > 100 µM
[5]
  TGI: > 100 µM
[6]
  TGI: > 100 µM
[18]
  TGI: > 100 µM
[7]
  TGI: > 100 µM
[8]
  TGI: > 100 µM
[9]
  TGI: > 100 µM
[20]
  TGI: > 100 µM
[12]
  TGI: > 100 µM
[13]
  TGI: > 100 µM
[14]
  TGI: > 100 µM
[16]
  TGI: > 100 µM
